In US20260184693A1, “INHIBITORS OF SOLUTE CARRIER FAMILY 6A MEMBER 19 (SLC6A19) AND METHODS OF USE THEREOF” (Maze Therapeutics, Inc., priority 2022, published 2026) one finds IC50 data, which are given here for 13 compounds.

This test addresses T1, human SLC6A19 (Homo sapiens, UniProt Q695T7).
T1 construct: expressed in transfected cells
T1 sequence (Q695T7 1-634): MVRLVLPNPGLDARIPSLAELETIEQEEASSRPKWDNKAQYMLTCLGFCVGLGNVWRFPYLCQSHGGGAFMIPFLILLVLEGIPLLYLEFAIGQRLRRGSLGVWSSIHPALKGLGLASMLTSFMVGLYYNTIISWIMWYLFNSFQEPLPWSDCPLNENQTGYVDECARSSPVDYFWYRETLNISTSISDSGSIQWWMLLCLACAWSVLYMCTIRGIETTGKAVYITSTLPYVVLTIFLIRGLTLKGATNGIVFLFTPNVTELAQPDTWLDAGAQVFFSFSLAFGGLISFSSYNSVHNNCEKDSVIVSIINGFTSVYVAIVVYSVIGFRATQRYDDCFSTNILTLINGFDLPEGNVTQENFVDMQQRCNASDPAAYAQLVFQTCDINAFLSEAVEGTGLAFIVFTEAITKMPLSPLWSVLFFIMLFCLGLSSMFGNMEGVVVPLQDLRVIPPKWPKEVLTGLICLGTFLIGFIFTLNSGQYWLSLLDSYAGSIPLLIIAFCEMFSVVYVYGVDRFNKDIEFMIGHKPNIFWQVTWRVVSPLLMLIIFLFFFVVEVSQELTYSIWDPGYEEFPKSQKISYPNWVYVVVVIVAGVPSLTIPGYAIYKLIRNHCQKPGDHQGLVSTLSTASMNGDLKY
T1 sequence (Q9HBJ8 15-222 partner): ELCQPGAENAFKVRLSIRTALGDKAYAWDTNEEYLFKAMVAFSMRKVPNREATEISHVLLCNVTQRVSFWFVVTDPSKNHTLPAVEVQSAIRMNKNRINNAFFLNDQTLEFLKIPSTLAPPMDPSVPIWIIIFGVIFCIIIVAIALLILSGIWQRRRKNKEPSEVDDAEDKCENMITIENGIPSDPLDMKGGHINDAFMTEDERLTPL
Kind of test: Example B2: 13C6,15N-isoleucine uptake, RapidFire mass spectrometry, in CHO cells with doxycycline-inducible expression of human SLC6A19 and TMEM27. To be noted: read-out: SLC6A19_RapidFire Uptake Assay IC50. The format is cell-based. The method in brief: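 CHO cells were induced with doxycycline to express human SLC6A19 with TMEM27, then pre-incubated 20 min at 37 °C with compounds (2-fold, 10-point, duplicate). Uptake of 13C6,15N-isoleucine (2 mM solution added) over a further 20 min was measured by RapidFire mass spectrometry, using 13C-leucine as internal standard.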
Regarding `CN(C(=O)NCc1cc2cc(Cl)ccc2[nH]1)[C@@H]1CCCN(C(=O)c2ccnnc2)C1` [Compound 23, (R)-3-((5-chloro-1H-indol-2-yl)methyl)-1-methyl-1-(1-(pyridazine-4-carbonyl)piperidin-3-yl)urea], the IC50 (commonly the concentration that inhibits the measured activity by half) was 5840 nM. The result for `CN(C(=O)NCc1cc2cc(Cl)ccc2[nH]1)[C@@H]1CCCN(C(=O)C2(C)CC2)C1` [Compound 45, (R)-3-((5-chloro-1H-indol-2-yl)methyl)-1-methyl-1-(1-(1-methylcyclopropane-1-carbonyl)piperidin-3-yl)urea] reads 1550 nM. Next, `CN(C(=O)NCc1cc2cc(Cl)ccc2[nH]1)[C@@H]1CCCN(C(=O)N2CCC2)C1` [Compound 173, (R)-1-(1-(azetidine-1-carbonyl)piperidin-3-yl)-3-((5-chloro-1H-indol-2-yl)methyl)-1-methylurea]: 314 nM; `CN(C(=O)NCc1cc2cc(Cl)ccc2[nH]1)[C@@H]1CCCN(C(=O)c2ncc(F)cn2)C1` [Compound 24, (R)-3-((5-chloro-1H-indol-2-yl)methyl)-1-(1-(5-fluoropyrimidine-2-carbonyl)piperidin-3-yl)-1-methylurea]: 4200 nM; `Cc1noc(CC(=O)N2CCC[C@@H](N(C)C(=O)NCc3cc4cc(Cl)ccc4[nH]3)C2)n1` [Compound 65, (R)-3-((5-chloro-1H-indol-2-yl)methyl)-1-methyl-1-(1-(2-(3-methyl-1,2,4-oxadiazol-5-yl)acetyl)piperidin-3-yl)urea]: 973 nM.

Take `Cc1cc(COc2cc3[nH]c(CNC(=O)N(C)[C@@H]4CCCN(c5cccnn5)C4)cc3cc2Cl)no1` [Compound 144, (R)-3-((5-chloro-6-((5-methylisoxazol-3-yl)methoxy)-1H-indol-2-yl)methyl)-1-methyl-1-(1-(pyridazin-3-yl)piperidin-3-yl)urea]: the IC50 is 284 nM. The result for `CN(C(=O)NCc1cc2cc(Cl)ccc2[nH]1)[C@@H]1CCCN(C(=O)C2(C(F)(F)F)CC2)C1` [Compound 57, (R)-3-((5-chloro-1H-indol-2-yl)methyl)-1-methyl-1-(1-(1-(trifluoromethyl)cyclopropane-1-carbonyl)piperidin-3-yl)urea] reads 8640 nM; that for `CC(=O)N1CCC[C@@H](N(C)C(=O)NCc2cc3cc(F)c(Cl)cc3[nH]2)C1` [Compound 164, (R)-1-(1-acetylpiperidin-3-yl)-3-((6-chloro-5-fluoro-1H-indol-2-yl)methyl)-1-methylurea], 351 nM. The result for `CN(C(=O)NCc1cc2cc(Cl)ccc2[nH]1)[C@@H]1CCCN(C(=O)c2cnnn2C)C1` [Compound 26, (R)-3-((5-chloro-1H-indol-2-yl)methyl)-1-methyl-1-(1-(1-methyl-1H-1,2,3-triazole-5-carbonyl)piperidin-3-yl)urea] reads 5260 nM.

On to `CC(=O)NCCC(=O)N1CCC[C@@H](N(C)C(=O)NCc2cc3cc(Cl)ccc3[nH]2)C1` [Compound 89, (R)-N-(3-(3-(3-((5-chloro-1H-indol-2-yl)methyl)-1-methylureido)piperidin-1-yl)-3-oxopropyl)acetamide], for which the 50% inhibitory concentration (IC50) came to 1080 nM. With `CN(C(=O)NCc1cc2cc(Cl)ccc2[nH]1)[C@@H]1CCCN(C(=O)c2ccon2)C1` [Compound 5, (R)-3-((5-chloro-1H-indol-2-yl)methyl)-1-(1-(isoxazole-3-carbonyl)piperidin-3-yl)-1-methylurea], the IC50 stood at 578 nM.

Take `CN1CCC[C@@H](N(C)C(=O)NCc2cc3cc(Cl)ccc3[nH]2)C1` [Compound 149, (R)-3-((5-chloro-1H-indol-2-yl)methyl)-1-methyl-1-(1-methylpiperidin-3-yl)urea]: the 50% inhibitory concentration (IC50) came to 10100 nM.

For `CN(C(=O)NCc1cc2cc(Cl)ccc2[nH]1)[C@@H]1CCCN(C(=O)C2CCC2F)C1` (stereo partly drawn) [Compound 125, 3-((5-chloro-1H-indol-2-yl)methyl)-1-((3R)-1-(2-fluorocyclobutane-1-carbonyl)piperidin-3-yl)-1-methylurea], the IC50 stood at 259 nM.
